Columns and labels:
[1] = system: CD8^+ CD25^hi depleted PBMC; assay: T cell proliferation assay (3HTdR) with whole CD8+ depleted vs CD8+ CD25hi depleted PBMC; assay type: cell-based, human; conditions: peptides previously scored borderline or negative; SI≧2 threshold
[2] = system: CD8^+ CD25^hi T cell depleted PBMC; assay: Timecourse T cell proliferation assay, bulk cultures of CD8+ CD25hi T cell depleted PBMC; assay type: cell-based, human
Protocol: Wild type (WT) and T cell epitope depleted peptides ([…] and […], respectively) derived from human sTNFR1 sequence were synthesized (Pepscan Systems, Leystad, Netherlands) and tested using the method of example 1 in which CD8^+ CD25^hi T cell depleted PBMC were used to compare peptides derived from sTNFR-1 for the capacity to stimulate T cell responses from twenty healthy donors. Bulk cultures were established by adding 1 ml of 2-4×10^6/ml CD8^+ CD25^hi T cell depleted PBMC in AIM V culture medium to each well of a 24 well plate (Greiner Bio-One, Frickenhausen, Germany). Each peptide was tested separately against each donor by adding 1 ml 10 μM peptide to each bulk culture (final concentration of 5 μM for a 2 ml per bulk culture). For comparison, additional bulk cultures were established for untreated and positive (KLH) controls. Replicate samples (of T blasts) were removed from bulk cultures on days 6-9 and proliferation was assessed in 96 round bottom plates The data were used to assess the magnitude and kinetics of T cell responses to each peptide on days 6, 7, 8 and 9 post stimulation. In addition, the same twenty healthy donors used in the time course proliferation assay were tested for IL-2 production after 8 days culture with the TNFR1 peptides using the IL-2 Elispot assay. Elispot plates were pre-wet with 70% ethanol then coated with IL-2 capture antibody (R&D systems, Minneapolis, USA) overnight at 4° C. The plates were washed twice with PBS (Invitrogen, Paisley, UK) then blocked in 1% BSA/PBS for 2 hours at room temperature. The plates were washed in PBS prior to the addition of CD8^+ CD25^hi T cell depleted PBMC at 4×10^5 cells per well and test samples at a final concentration of 5 μM. After 7 days at 37° C./5% CO2, the plates were developed. After washing with first water then PBS, IL-2 detection antibody (R&D systems, Minneapolis, USA) in PBS/1% BSA was added for 2 hours at 37° C. After further washing with PBS, streptavadin-AP (R&D systems, Minneapolis, USA) was added for 1.5 hours, the plates washed again then BCIP/NBT chromagen (R&D systems, Minneapolis, USA) added for 30 minutes. The plates were washed with water, dried then spot counts analysed using the Immunospot Elispot analyzer, software version 3 (Cleveland, Ohio, USA).
Wild type (WT) and mutant T cell epitope depleted human sTNFR1 proteins were prepared as human Fc fusion proteins as described in WO/2004/113387 with the epitope-depleted protein having mutations I10Q, T20R, H23P, L56A, L108T, L110H and L149D. Proliferation and IL-2 Elispot assays were performed as in example 2 except that 1 ml of sTNFR1 proteins were added to a final concentration of 10 μg/ml.
Carbamazepine (Novartis Pharmaceuticals UK) and an N-acetyl iminostilbene (an analogue of carbamazepine, synthesized according to Ying et al Journal of Allergy and Clinical Immunology 2006; 118:233-241) were compared for the ability to stimulate T cell responses in a panel of healthy donors. Both compounds were tested at 25 μg/ml in separate bulk cultures for each donor according to the method of example 2. Briefly, bulk cultures were established using 2-4×10^6 CD8^+ CD25^hi T cell depleted PBMC in each well of a 24 well plate. Replicate samples (of T blasts) are removed from bulk cultures on days 5-8 and proliferation was assessed in 96 well plates. The data were used to assess the magnitude and kinetics of T cell responses to each compound.
As for example 2, a SI≧2 was used as a threshold for positive responses and data was further analyzed to determine the coefficient of variance (CV), standard deviation (SD) and significance (p<0.05) using parametric and non-parametric statistical analysis. Any given compound was considered to be immunogenic only if the response is statistically significant (p<0.05) with an SI≧2.

[3] = system: CD8^+ CD25^hi T cell depleted PBMC; assay: IL-2 Elispot assay with CD8+ CD25hi T cell depleted PBMC; assay type: cell-based, human; conditions: 5 μM peptide, twenty healthy donors, SI threshold of 2, p<0.05; donors 3, 8 and 11
Protocol: Wild type (WT) and T cell epitope depleted peptides ([…] and […], respectively) derived from human sTNFR1 sequence were synthesized (Pepscan Systems, Leystad, Netherlands) and tested using the method of example 1 in which CD8^+ CD25^hi T cell depleted PBMC were used to compare peptides derived from sTNFR-1 for the capacity to stimulate T cell responses from twenty healthy donors. Bulk cultures were established by adding 1 ml of 2-4×10^6/ml CD8^+ CD25^hi T cell depleted PBMC in AIM V culture medium to each well of a 24 well plate (Greiner Bio-One, Frickenhausen, Germany). Each peptide was tested separately against each donor by adding 1 ml 10 μM peptide to each bulk culture (final concentration of 5 μM for a 2 ml per bulk culture). For comparison, additional bulk cultures were established for untreated and positive (KLH) controls. Replicate samples (of T blasts) were removed from bulk cultures on days 6-9 and proliferation was assessed in 96 round bottom plates The data were used to assess the magnitude and kinetics of T cell responses to each peptide on days 6, 7, 8 and 9 post stimulation. […] The plates were washed with water, dried then spot counts analysed using the Immunospot Elispot analyzer, software version 3 (Cleveland, Ohio, USA). […]

patients = conditions: known; cited from earlier work
[4] = system: autologous CD8^+ CD25^hi depleted CD4^+ T cells; assay: Proliferation assay, antigen-pulsed monocyte derived dendritic cells plus autologous CD8+ CD25hi depleted CD4+ T cells; assay type: cell-based, human; conditions: 44 μg/ml, DC pulsed 6 hours, 7 days, SI ≧2, p<0.05, FIG. 4
Protocol: (§1) Monocytes were isolated from PBMC by adherence to tissue culture plastic (>90% CD14^+) and were cultured in 24 well plates in AIM V medium with 5% heat inactivated human AB serum (Autogen Bioclear, Caine, Wiltshire, UK) (growth medium) at an approximate density of 1×10^6 per well (24 well plate). Monocytes were incubated in growth medium containing human IL-4 (Peprotech, Rocky Hill, N.J., USA) and GM-CSF (Peprotech, Rocky Hill, N.J., USA) for 3 days. On day 3, 44 μg/ml of Betaferon (Schering AG, Berlin, Germany) were added in 0.5 ml test buffer plus 3% heat inactivated human AB serum and 25 mM (final concentration) HEPES pH 8. Control wells containing 50 μg/ml KLH or no antigen (untreated cells) were incubated in 1 ml PBS+0.01% Tween 20 plus 3% heat inactivated human AB serum (standard buffer). DC were incubated with antigen for 6 hours after which DCs were washed 6 times to remove exogenous IFN beta. […]
(§2) On day 4, autologous CD8^+ CD25^hi depleted CD4^+ T cells were isolated by negative selection from PBMC (Dynal Human CD4^+ Negative Isolation Kit, Wirral, UK) and were then added to DCs at 1×10^5 per well in both proliferation and Elispot plates. Elispot plates were incubated for 6 days before developing (as in example 2) and proliferation plates were incubated for 7 days before proliferation was measured by incorporation of 3HTdR (a 6 hour pulse at 1 μCi/well). […]

[5] = system: autologous CD8^+ CD25^hi depleted CD4^+ T cells; assay: IL-2 Elispot assay, antigen-pulsed monocyte derived dendritic cells plus autologous CD8+ CD25hi depleted CD4+ T cells; assay type: cell-based, human; conditions: 44 μg/ml, DC pulsed 6 hours, 6 days, SI ≧2, p<0.05, FIG. 4
Protocol: as §1, §2

[6] = 5 μM peptide, donors 3, 8 and 11

PGQTATITCSGHALG [peptide 1]
detection of T cell epitopes after CD25^hi T cell depletion [1]: allowed detection of T cell epitopes

CC(=O)N1c2ccccc2C=Cc2ccccc21 [N-acetyl iminostilbene]
donors stimulated, compared ([2]; 25 μg/ml, days 5-8, panel of healthy donors, SI≧2, p<0.05): fewer donors than carbamazepine

HLRHCLSCSKCRKEM [WT peptide]
peak proliferation responses, time [2, 6]: 7 days after peptide addition | score as a T cell epitope if proliferation measured at timepoints 8 or 9 days after peptide addition [2, 6]: negative | donors giving responses, proliferation assay ([2]; 5 μM peptide, twenty healthy donors, days 6-9, SI threshold of 2, p<0.05, donors 3, 8 and 11): three | donors giving responses, IL-2 Elispot assay [3]: three

NC(=O)N1c2ccccc2C=Cc2ccccc21 [carbamazepine, Carbamazepine]
additional responses detected on days 6 and 7 ([2]; 25 μg/ml): one | day on which the majority of T cell responses are induced ([2]; 25 μg/ml, days 5-8): 5 days | delayed allergic responses in patients (patients): potent inducer of delayed allergic responses

GDKFVSWYQQGSGQS [compound 2]
detection of T cell epitopes after CD25^hi T cell depletion [1]: allowed detection of T cell epitopes

B1: mutant T cell epitope depleted protein: T cell epitope depleted human sTNFR1 Fc fusion protein with mutations I10Q, T20R, H23P, L56A, L108T, L110H and L149D (protein, UniProt P19438 30-211, looked up, variant I10Q T20R H23P L56A L108T L110H L149D)
extracellular domain: LVPHLGDREKRDSVCPQGKYQHPQNNSICCRKCPKGTYLYNDCPGPGQDTDCRECESGSFTASENHARHCLSCSKCRKEMGQVEISSCTVDRDTVCGCRKNQYRHYWSENLFQCFNCSTCHNGTVHLSCQEKQNTVCTCHAGFFLRENECVSCSNCKKSDECTKLCLPQIENVKGTEDSGTT
modifications: extracellular domain human Fc fusion
donors with significant T cell responses, proliferation assay ([2]; whole protein 10 μg/ml, timecourse, FIG. 3): not

B2: Betaferon: Betaferon (Schering AG), human interferon beta, an immunomodulatory protein (protein, UniProt P01574 22-187, looked up, variant C17S)
Interferon beta: MSYNLLGFLQRSSNFQSQKLLWQLNGRLEYCLKDRMNFDIPEEIKQLQQFQKEDAALTIYEMLQNIFAIFRQDSSSTGWNETIVENLLANVYHQINHLKTVLEEKLEKEDFTRGKLMSSLHLKRYYGRILHYLKAKEYSHCAWTIVRVEILRNFYFINRLTGYLRN
modifications: no N-terminal Met
notes: Betaferon (Schering AG), human interferon beta, an immunomodulatory protein
donors with significant T cell responses, proliferation assay [4]: 4 out of 29 | donors with significant T cell responses, IL-2 Elispot assay [5]: 4 out of 29

— US20090221024A1, “T CELL ASSAYS” (ANTITOPE LIMITED, priority 2006, published 2009)
